Test results as given in PubChem BioAssay AID1963853 (Molecular Pharmacology Branch, DTP, NCI, 2024).

Test system: 266295-075-R-J1-PDC spheroid viability
Assay: Anticancer human tumor 266295-075-R-J1-PDC patient-derived head and neck squamous carcinoma cell line growth inhibition [POLQ]
Conditions: spheroids with HUVEC and MSC; for IC50: curve of first compound; for viability, T/C: stronger effect = lower value
Procedure: Multicellular complex tumor spheroid response to Polymerase (POL) inhibitors (novobiocin, ART-558, RP6685) in combination with a variety of drugs and investigational agents in selected tumor cell lines
The POL inhibitors (novobiocin, ART-558, and RP6685) were evaluated both individually and in combination with standard of care and investigational anticancer small molecules within a complex spheroid model of solid tumors. . Complex spheroids include a stromal component modeled by human endothelial cells (HUVEC) and fibroblasts modeled by human mesenchymal stem cells (MSCs). The concentration ranges selected for each drug and investigational agent were based upon clinically achievable concentrations if the clinical Cmax of the agent was known.
Compounds. The drugs and investigational agents: novobiocin (NSC847541), ART-558 (NSC835418), RP-6685 (NSC848927), peposertib (NSC802822), ceralasertib (NSC780249), elimusertib (NSC800525), camonsertib (NSC841442), AZD-1390 (NSC803789), olaparib (NSC753686), talazoparib (NSC767125), rucaparib (NSC756644), sotorasib (NSC818433), MRTX-1133 (NSC836407), SN-38 (NSC673596), topotecan (NSC609699), epotoside (NSC141540), doxorubicin (NSC123127), gemcitabine (NSC613327), 5-fluorouracil (NSC19893), paclitaxel (NSC125973), vemurafenib (NSC761431), MSA-2 (NSC828583), SN-011 (NSC837082), adavosertib (NSC754352), prexasertib (NSC758257), carboplatin (NSC241240) and oxaliplatin (NSC266046), were obtained from the National Cancer Institute (NCI) Developmental Therapeutics Program Chemical Repository (21). The FDA-approved anticancer drug set is available from the Developmental Therapeutics Program at https://dtp.cancer.gov/organization/dscb/obtaining/. […] The stock solutions were prepared in dimethyl sulfoxide (DMSO, Sigma-Aldrich, St. Louis, MO, cat. D2650), except for the platinum compounds which were prepared in saline (Quality Biological, Gaithersburg, MD, cat. 114-055-101), at 800-fold the tested concentration and stored at -70 degrees C prior to their use. All drugs and investigational agents were tested over a range starting from a high concentration at or near the clinical Cmax and decreasing in half-log increments. If the clinical Cmax for an agent had not been determined, the highest concentration tested was 10 microM, except for SN-38, which was tested at a high concentration of 1 microM.
Cell Culture. All cells were maintained in an incubator at 37 degrees C and 5% CO2 with 95% humidity. The PDC lines were cultured according to standard operating procedures established by the NCI PDMR (https://pdmr.cancer.gov). Table 3 of the manuscript, lists the cell lines along with the number of the three cell types plated to form the mct-spheroids and media for tumor cell growth. After thawing, all PDC lines, except 997537-175-T-J1-PDC and 415267-285-R-J2-PDC, were cultured in Matrigel-coated flasks prepared with a working solution of 1X Ham's F-12 nutrient mix, without supplementation (Thermo Fisher Scientific, cat. 11765054), 100 U/mL penicillin-streptomycin (Thermo Fisher Scientific, cat. 15140122), and 2.5% Matrigel (Corning Inc., Corning, NY, cat. 354248) for the first three passages. The two PDC lines 997537-175-T-J1-PDC and 415267-285-R-J2-PDC were cultured on uncoated flasks. The 857933-349-R-J2-PDC line was cultured in 6C/Colon 1B media containing advanced DMEM/F-12 (Thermo Fisher Scientific, cat. 12634028), 10 mM HEPES (Thermo Fisher Scientific, cat. 15630080), 1X GlutaMAX supplement (Thermo Fisher Scientific, cat. 35050061), 0.1 mg/mL primocin (InvivoGen, San Diego, CA, cat. ant-pm-2), 10% defined fetal bovine serum, heat inactivated (HyClone Laboratories Inc., Logan, UT, cat. SH30070.03HI), 50% L-WRN conditioned media (ATCC, cat. CRL-3276), 1.25 mM N-Acetyl-L-cysteine (Sigma-Aldrich, cat. A9165), 10 mM nicotinamide (Sigma-Aldrich, cat. N0636), 1X B-27 supplement (Thermo Fisher Scientific, cat. 17504044), 1X N-2 supplement (Thermo Fisher Scientific, cat. […]
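Note: spheroids exposed to compounds for seven days before readout.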

SMILES: CC(=O)O[C@H]1C(=O)[C@@]2(C)[C@H]([C@H](OC(=O)c3ccccc3)[C@]3(O)C[C@H](OC(=O)[C@H](O)[C@@H](NC(=O)c4ccccc4)c4ccccc4)C(C)=C1C3(C)C)[C@]1(OC(C)=O)CO[C@@H]1C[C@@H]2O + Nc1ccc(C#CCN(C(=O)Cc2ncc(C(F)(F)F)cc2C(F)(F)F)c2ccc(F)cc2)nn1
- IC50 (second compound 0.0316 µM): > 3 µM
- IC50 (second compound 0.1 µM): > 3 µM
- IC50 (second compound 0.316 µM): > 3 µM
- IC50 (second compound 1 µM): > 3 µM
- IC50 (second compound 3.16 µM): > 3 µM
- IC50 (second compound 10 µM): > 3 µM
- viability, T/C (second compound 0.0316 µM, first compound 0.00949 µM): 98.3%
- viability, T/C (second compound 0.0316 µM, first compound 0.03 µM): 78.9%
- viability, T/C (second compound 0.0316 µM, first compound 0.0949 µM): 73.9%
- viability, T/C (second compound 0.0316 µM, first compound 0.3 µM): 76%
- viability, T/C (second compound 0.0316 µM, first compound 0.949 µM): 78.8%
- viability, T/C (second compound 0.0316 µM, first compound 3 µM): 78.3%
- viability, T/C (second compound 0.1 µM, first compound 0.00949 µM): 75.6%
- viability, T/C (second compound 0.1 µM, first compound 0.03 µM): 84%
- viability, T/C (second compound 0.1 µM, first compound 0.0949 µM): 69.3%
- viability, T/C (second compound 0.1 µM, first compound 0.3 µM): 69.3%
- viability, T/C (second compound 0.1 µM, first compound 0.949 µM): 70.7%
- viability, T/C (second compound 0.1 µM, first compound 3 µM): 71.3%
- viability, T/C (second compound 0.316 µM, first compound 0.00949 µM): 94.1%
- viability, T/C (second compound 0.316 µM, first compound 0.03 µM): 82.9%
- viability, T/C (second compound 0.316 µM, first compound 0.0949 µM): 63.7%
- viability, T/C (second compound 0.316 µM, first compound 0.3 µM): 55.3%
- viability, T/C (second compound 0.316 µM, first compound 0.949 µM): 77.5%
- viability, T/C (second compound 0.316 µM, first compound 3 µM): 61.4%
- viability, T/C (second compound 1 µM, first compound 0.00949 µM): 81.3%
- viability, T/C (second compound 1 µM, first compound 0.03 µM): 59.1%
- viability, T/C (second compound 1 µM, first compound 0.0949 µM): 69%
- viability, T/C (second compound 1 µM, first compound 0.3 µM): 70.7%
- viability, T/C (second compound 1 µM, first compound 0.949 µM): 72.7%
- viability, T/C (second compound 1 µM, first compound 3 µM): 66%
- viability, T/C (second compound 3.16 µM, first compound 0.00949 µM): 71%
- viability, T/C (second compound 3.16 µM, first compound 0.03 µM): 80.5%
- viability, T/C (second compound 3.16 µM, first compound 0.0949 µM): 77.4%
- viability, T/C (second compound 3.16 µM, first compound 0.3 µM): 62.8%
- viability, T/C (second compound 3.16 µM, first compound 0.949 µM): 65%
- viability, T/C (second compound 3.16 µM, first compound 3 µM): 67.4%
- viability, T/C (second compound 10 µM, first compound 0.00949 µM): 72.4%
- viability, T/C (second compound 10 µM, first compound 0.03 µM): 74.6%
- viability, T/C (second compound 10 µM, first compound 0.0949 µM): 63%
- viability, T/C (second compound 10 µM, first compound 0.3 µM): 71.1%
- viability, T/C (second compound 10 µM, first compound 0.949 µM): 76.7%
- viability, T/C (second compound 10 µM, first compound 3 µM): 77.2%
